pIC50: −log10 of the molar value.
Columns and labels:
[1] = test system: AML cells; assay: Cell viability and growth in AML cells (FIGS. 9A-9B); type: cell-based
Procedure: (§1) Cell viability and proliferation assay. Cell viability and proliferation were performed with CellTiter 96 Non-Radioactive Cell Proliferation Assay (MTT, […], Promega). To verify the function of METTL16 inhibitor, cancer cells were seeded into 96-well plate and treated with a series of drug concentration in triplicates. For the cell proliferation with METTL16 knockdown stable cell lines were seeded into 96-well plates, and cultured in the incubator at 37° C. with 5% CO2. 15 μl of the Dye Solution was added into each well. After incubation of 2-4 h, 100 μl of the Solubilization Solution/Stop Mix was added to each well. Finally, the absorbance was determined at 570 nm on the next day.

[2] = test system: AML and other cancers; assay: Cell viability of cancer cell lines on CDH24 treatment (MTT); type: cell-based, human
Procedure: as §1
FIG. 4A provides a Western blots analysis showing the levels of METTL16 expression in various AML cell lines (Kasumi-1, MONOMAC6 (MM6), K562, ML-2, 9.3ITD, U937) and normal bone marrow (BM) mononuclear cells. Actin served as a loading control. […] The values were detected by MTT assays 48 or 72 hours post treatment. In FIGS. 4A-4K: *p<0.05; **p<0.01; ***p<0.001; t test. Error bars, mean±SEM (n≥3)

[3] = molecular target: T1, METTL16 (Homo sapiens, UniProt Q86W50); assay: Drug affinity responsive target stability (DARTS) in U937 cell lysates; type: binding; conditions: CDH24 0.1 uM to 500 uM, pronase digestion, immunoblot
T1 construct: endogenous in cells; host or cells: U937, Kasumi-1, MA9.3RAS (human AML cells)
T1 sequence (Q86W50 1-562): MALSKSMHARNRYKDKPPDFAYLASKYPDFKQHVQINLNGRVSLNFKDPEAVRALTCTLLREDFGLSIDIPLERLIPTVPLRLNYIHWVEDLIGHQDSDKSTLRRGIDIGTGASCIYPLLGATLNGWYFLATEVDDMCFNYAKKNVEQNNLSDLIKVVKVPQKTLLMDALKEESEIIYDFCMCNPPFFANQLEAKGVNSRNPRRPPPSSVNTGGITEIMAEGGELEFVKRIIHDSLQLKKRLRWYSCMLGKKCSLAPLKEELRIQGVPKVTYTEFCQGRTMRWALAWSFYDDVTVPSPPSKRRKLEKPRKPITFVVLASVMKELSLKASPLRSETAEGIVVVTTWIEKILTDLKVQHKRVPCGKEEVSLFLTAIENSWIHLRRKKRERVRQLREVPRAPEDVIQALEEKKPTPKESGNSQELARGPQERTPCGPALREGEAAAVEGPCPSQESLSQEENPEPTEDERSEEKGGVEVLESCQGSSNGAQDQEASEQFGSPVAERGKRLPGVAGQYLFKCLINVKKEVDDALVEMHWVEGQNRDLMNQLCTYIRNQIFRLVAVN
Procedure: Drug Affinity Responsive Targets Stability (DARTS). […] In short, 4×10^7 U937 cells were collected, washed with chilled PBS, and lysed in 600 ul M-PER (78501, Thermo Fisher Scientific) supplement with protease inhibitor cocktail and phosphatase inhibitor cocktail. The cells were lysed on ice for 10 min, and centrifuged at 18,000 g for 10 min at 4° C. The supernatant was carefully transferred to a new tube. 10× TNC buffer (500 mM Tris-HCl with pH 8.0, 500 mM NaCl, 100 mM CaCl2) was added into lysate, the protein concentration was then detected by BCA assay. The protein concentration diluted with 1× TNC buffer was adjusted to 5 ug/ul. […] The reaction was quenched by addition of protease inhibitor cocktail and the sample was immediately placed on ice. 4× Laemmli Sample Buffer was added to lysate and denatured at 99° C. for 10 min. Finally, western blotting was used to determine the abundance of METTL16.
(§2) For DARTS, U937 cell lysates were treated with CDH-24 (from 0.1 uM to 500 uM) or DMSO; samples were subjected to pronase digestion and detected by immunoblotting. Actin was resistant to subtilizing under these conditions and served as a loading control. […] METTL16 knockdown by shRNAs was confirmed by western blots (FIG. 5D). […] In FIGS. 5A-5F: *p<005; **p<0.01: ***p<0001; t test. Error bars, mean±SEM (n≥3).

[4] = molecular target: T1, METTL16; assay: Cellular thermal shift assay (CETSA) in U937 cells; type: binding; conditions: 50 μM CDH24 1 h, different temperatures, immunoblot
Procedure: Cellular Thermal Shift Assay (CETSA). […] Then, the cells were re-suspended in 1.5 ml PBS supplemented with protease inhibitor cocktail. And the cells were distributed into 10 different 200 ul 8-strip PCR tubes with 100 ul for each tube, heat shocked in the Bio-Rad T100 Thermal Cycler at indicated temperature for 3 min to denature proteins, and immediately cooled down at room temperature for 3 min. cells were lysed using dry ice and two repeated cycles of freeze-thaw, then centrifuged at 20,000 g for 20 min at 4° C. Soluble proteins, collected from the supernatant were denatured with 4× Laemmli Sample Buffer at 99° C. for 10 min. Finally, the protein samples were analyzed by western blot.
as §2

[5] = molecular target: T1, METTL16; assay: m6A dot blot, global m6A in AML cells; type: cell-based
Procedure: m^6A dot blot assay. Total RNA was purified with QIAzol regent, and mixed well with 3 volumes of RNA incubation buffer, then denatured at 65° C. for 5 minutes and cooling down on ice immediately. 200 ul of 10×SSC buffer (S6639, Sigma-Aldrich) was loaded onto the Amersham Hybond-N+ membrane for each well to pre-wet the membrane. Then one volume of 20×SSC buffer was added into the RNA samples before dotted onto the membrane. The UV irradiation was used to crosslink RNA to the membrane. After crosslink, the membrane was stained by 0.02% methylene blue and scanned as loading control. Then, the membrane was blocked with 5% nonfat dry milk at room temperature for 1 h and incubated with anti-m6A antibody (1:2000, Synaptic Systems) overnight at 4° C. Next day, the membrane was incubated with the HRP-conjugated goat anti-rabbit IgG (ab6721, abcam) at room temperature for 1 h and developed with pierce ECL Western blotting Substrate (PI32106, Thermo Fisher).
MB, methyl blue (as loading control). FIGS. 6B-6C show gene-specific m^6A qPCR analysis of m^6A level changes in mRNA transcripts of several known target transcripts of METTL16 in U937 (FIG. 6B) or MA9.3RAS (FIG. 6C) AML cells upon 72 hours treatment of […], relative to cells treated with DMSO.

[6] = test system: human NOMO-1 AML cells; assay: Viability of human NOMO-1 AML cells (MTT, CellTiter 96); type: cell-based; conditions: NOMO-1 cells, 10,000 cells/well, 72 h treatment, read-out: IC50 in inhibiting the viability of human NOMO-1 AML cells
Procedure: as §1
The compounds described herein were tested for their ability to inhibit the viability of human NOMO-1 AML cells. […] Cell viability. NOMO-1 cells were seeded into 96-well plate in the concentration of 10,000 cells/well and treated with compounds in triplicates for 72 h. Cell viability was assessed by CellTiter 96 Non-Radioactive Cell Proliferation Assay (MTT, G4100, Promega) following the manufacturer's protocols.

Nc1ccc(Cn2ccc3c4c(N)nc(N)nc4ccc32)c(CO)c1 [CDH24-6]
cell viability and growth in AML cells [1]: inhibit cell viability and growth

Nc1ccc(CO)c(Cn2ccc3c4c(N)nc(N)nc4ccc32)c1 [CDH24-7]
cell viability and growth in AML cells [1]: inhibit cell viability and growth

Nc1ccc(Cn2ccc3c4c(N)nc(N)nc4ccc32)cc1 [CDH24]
cell viability and growth in AML and other cancers ([2]; FIGS. 4A-4K): inhibitory effect | cell viability in ALL, lymphoma, cervical cancer, pancreatic cancer and glioblastoma cell lines ([2]; MTT assay 72 hours post treatment, series of concentrations): inhibitory effects | binding to METTL16 by DARTS [3]: direct binding | binding to METTL16 by CETSA [4]: direct binding | methyltransferase activity of METTL16 and expression of METTL16 target genes ([5]; FIGS. 6A-6C): inhibitory effect | levels of global m^6A ([5]; U937, Kasumi-1 and MA9.3RAS AML cells, 48 hours treatment): increases

N#Cc1ccc(-n2ccc3c4c(N)nc(N)nc4ccc32)cc1 [Compound (E)]
pIC50 [6]: 7.69

Nc1nc(N)c2c(ccc3c2ccn3Cc2ccc(Cl)cc2)n1 [Compound (F)]
pIC50 [6]: 8.81

N#Cc1ccc(C(=O)n2ccc3c4c(N)nc(N)nc4ccc32)cc1 [Compound (G)]
pIC50 [6]: 6.13

CC(=O)Nc1ccc(Cn2ccc3c4c(N)nc(N)nc4ccc32)cc1 [Compound D]
pIC50 [6]: 8.86

Nc1nc(N)c2c(ccc3[nH]ccc32)n1 [Compound H]
pIC50 [6]: 6.03
